Laboratory results from patent US20220175717A1, “PHENPROCOUMON TTS” (LTS LOHMANN THERAPIE-SYSTEME AG, priority 2019, published 2022).

Experiments:
[1] = Saturation concentration Cs of phenprocoumon in polymer matrices (sandwich method of Liu); format: physicochemical; settings: for Cs of phenprocoumon: 7 days at room temperature
Protocol: The saturation concentration Cs of phenprocoumon was determined in various polymer matrices according to the method of Liu (Liu, P., Gargiulo, P., Wong, J., and Novartis (1997). A Novel Method for Measuring Solubility of a Drug in an Adhesive. Pharmaceutical Research 14, p. 317). In this method, known among experts as the “sandwich” method, the saturation concentration is determined as follows: A laminate is built up with the following sequence of layers: protective film—donor layer with active substance (dissolved and undissolved)—active-substance-permeable membrane—acceptor layer without active substance—protective film. The two protective films consist of identical material; the matrix material of the donor layer and acceptor layer is also identical. The donor layer is prepared by dissolving the active substance in a solution of the polymer in organic solvent. In this process, the concentration of the active substance must be chosen to be high enough that an undissolved residue is visible in the polymer matrix, so that the saturation concentration Cs in the donor layer is safely exceeded. This solution is spread on the protective film and the process solvent is evaporated. Then, the adhesive surface of the donor layer is covered with the membrane. The membrane used is a dialysis tube made of regenerated cellulose (ZelluTrans, from Roth, 46 mm flat width), which has been cut open lengthwise. The acceptor layer is produced analogously to the donor layer without active substance and is applied to the other side of the membrane. The laminates produced in this way are then stored at room temperature for 7 days, during which diffusion of the active substance through the membrane into the acceptor layer occurs. Subsequently, the active substance concentration in the donor layer is determined. For this purpose, aliquots of approx. 1 cm^2 are punched using a punching tool with a standardised surface area. The membrane is then removed, the punched pieces without membrane are weighed, and their weight is documented (m1). Then, the punched pieces are placed in organic solvent to dissolve the matrices. The backing layers are removed, washed and dried and their weight (m2) is determined. From both measured values, the weight of the polymer portion of the […] m3 is obtained as follows: m3=m1−m2 Subsequently, the concentration of phenprocoumon is determined in the solution using HPLC, and its concentration in the donor layer is calculated. The saturation concentrations of phenprocoumon in different polymer matrices determined according to this experimental approach are summarised in Table 1: […]

[2] = Solubility of phenprocoumon in process solvents; format: physicochemical
Protocol: Since toluene polysiloxane solution is not commercially available, BIO PSA 4201 from Dow Chemicals (polysiloxane in n-heptane) was used as starting material. The solvent was evaporated off and the rubbery polymeric residue was dissolved with enough toluene to obtain a solution with approx. 75% solids.

[3] = once absorbed by the body; cited from earlier work

- Cs of phenprocoumon ([1]; in acrylate copolymer of 2-ethylhexyl acrylate, vinyl acetate and 2-hydroxyl ethyl acrylate, ethyl acetate): 6.11%
- Cs of phenprocoumon ([1]; in acrylic copolymer of 2-ethylhexyl acrylate, butyl acrylate, vinyl acetate, acrylic acid, ethyl acetate): 7.26%
- saturation concentration Cs of phenprocoumon ([1]; in neutral polymers (text summary of Table 1)): > 5%
- Cs of phenprocoumon ([1]; in polyisobutylene, polymer dissolved in toluene): 2.8%
- Cs of phenprocoumon ([1]; in polysiloxane, ethyl acetate): 0.3%
- Cs of phenprocoumon ([1]; in styrene-isoprene-styrene block copolymer, polymer dissolved in toluene): 3.9%
- solubility ([2]; in aromatic hydrocarbons): sufficiently soluble
- solubility ([2]; in n-heptane): not in n-heptane
Structure (SMILES): CCC(c1ccccc1)c1c(O)c2ccccc2oc1=O (stereo not drawn) [phenprocoumon, Phenprocoumon]
- biological half-life [3]: up to 160 hours
